In ChEMBL document CHEMBL1201862, “PubChem BioAssay data set” (2004):
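Each compound was tested at five concentrations against cells in 96-well plates for 48 hours. At the GI50, growth is halved.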 Active and inactive are the calls of the source. No stated cut-off is given here; in the data, active = GI50 up to about 1.1 µM and inactive = higher.

What was measured:
Experiment in all cases: NCI tumour cell line growth inhibition, 48 h
786-0 = test system: 786-0
A498 = test system: A498
A549 = test system: A549
ACHN = test system: ACHN
BT-549 = test system: BT-549
CAKI-1 = test system: CAKI-1
CCRF-CEM = test system: CCRF-CEM
COLO 205 = test system: COLO 205
DU-145 = test system: DU-145
EKVX = test system: EKVX
HCC 2998 = test system: HCC 2998
HCT-116 = test system: HCT-116
HCT-15 = test system: HCT-15
HOP-62 = test system: HOP-62
HOP-92 = test system: HOP-92
Hs-578T = test system: Hs-578T
IGROV-1 = test system: IGROV-1
KM12 = test system: KM12
LOX IMVI = test system: LOX IMVI
M14 = test system: M14
MCF7 = test system: MCF7
MDA-MB-231 = test system: MDA-MB-231
MDA-MB-435 = test system: MDA-MB-435
MDA-N = test system: MDA-N
MOLT-4 = test system: MOLT-4
Malme-3M = test system: Malme-3M
NCI-H226 = test system: NCI-H226
NCI-H23 = test system: NCI-H23
NCI/ADR-RES = test system: NCI/ADR-RES
OVCAR-3 = test system: OVCAR-3
OVCAR-4 = test system: OVCAR-4
OVCAR-5 = test system: OVCAR-5
OVCAR-8 = test system: OVCAR-8
PC-3 = test system: PC-3
RPMI-8226 = test system: RPMI-8226
RXF 393 = test system: RXF 393
SF-268 = test system: SF-268
SF-295 = test system: SF-295
SF-539 = test system: SF-539
SK-MEL-28 = test system: SK-MEL-28
SK-MEL-2 = test system: SK-MEL-2
SK-MEL-5 = test system: SK-MEL-5
SK-OV-3 = test system: SK-OV-3
SN12C = test system: SN12C
SNB-19 = test system: SNB-19
SNB-75 = test system: SNB-75
SW-620 = test system: SW-620
T47D = test system: T47D
TK-10 = test system: TK-10
U-251 = test system: U-251
UACC-257 = test system: UACC-257
UACC-62 = test system: UACC-62
UO-31 = test system: UO-31
HT-29 = test system: HT-29
K562 = test system: K562
NCI-H460 = test system: NCI-H460
NCI-H522 = test system: NCI-H522
HL-60 = test system: HL-60

CCC(C)[C@H](NC(=O)[C@H](Cc1ccccc1)NC(=O)N(CC)c1ccccc1)C(=O)N[C@@H](CC(C)C)C(=O)OC (some centres undefined)
GI50 (786-0): 40.6 µM (inactive)
GI50 (A498): > 100 µM (inactive)
GI50 (A549): 52.5 µM (inactive)
GI50 (ACHN): 25.6 µM (inactive)
GI50 (BT-549): 33.5 µM (inactive)
GI50 (CAKI-1): 58.5 µM (inactive)
GI50 (CCRF-CEM): 21.4 µM (inactive)
GI50 (COLO 205): 60.1 µM (inactive)
GI50 (DU-145): 33.9 µM (inactive)
GI50 (EKVX): 49.3 µM (inactive)
GI50 (HCC 2998): 42.2 µM (inactive)
GI50 (HCT-116): 32.4 µM (inactive)
GI50 (HCT-15): 38.6 µM
GI50 (HOP-62): 33 µM (inactive)
GI50 (HOP-92): 40.7 µM (inactive)
GI50 (Hs-578T): 63.1 µM (inactive)
GI50 (IGROV-1): 20.4 µM (inactive)
GI50 (KM12): 22 µM (inactive)
GI50 (LOX IMVI): 30.9 µM (inactive)
GI50 (M14): 37.6 µM (inactive)
GI50 (MCF7): 25.7 µM (inactive)
GI50 (MDA-MB-231): 27.7 µM (inactive)
GI50 (MDA-MB-435): 24 µM (inactive)
GI50 (MDA-N): 45.1 µM (inactive)
GI50 (MOLT-4): 10.7 µM (inactive)
GI50 (Malme-3M): 31 µM (inactive)
GI50 (NCI-H226): 18 µM (inactive)
GI50 (NCI-H23): 31 µM (inactive)
GI50 (NCI/ADR-RES): > 100 µM (inactive)
GI50 (OVCAR-3): 24.8 µM (inactive)
GI50 (OVCAR-4): 94.4 µM (inactive)
GI50 (OVCAR-5): > 100 µM (inactive)
GI50 (OVCAR-8): 34 µM (inactive)
GI50 (PC-3): 35.3 µM (inactive)
GI50 (RPMI-8226): 8.93 µM (inactive)
GI50 (RXF 393): 74.1 µM (inactive)
GI50 (SF-268): 36.5 µM (inactive)
GI50 (SF-295): 59.7 µM (inactive)
GI50 (SF-539): 24.2 µM (inactive)
GI50 (SK-MEL-28): 40.3 µM (inactive)
GI50 (SK-MEL-2): 36.6 µM (inactive)
GI50 (SK-MEL-5): 26.7 µM (inactive)
GI50 (SK-OV-3): > 100 µM (inactive)
GI50 (SN12C): 38.6 µM (inactive)
GI50 (SNB-19): 35.4 µM (inactive)
GI50 (SNB-75): 70.5 µM (inactive)
GI50 (SW-620): 31.6 µM (inactive)
GI50 (T47D): 43.5 µM (inactive)
GI50 (TK-10): 37.9 µM (inactive)
GI50 (U-251): 38.5 µM (inactive)
GI50 (UACC-257): 24.9 µM (inactive)
GI50 (UACC-62): 48 µM (inactive)
GI50 (UO-31): 24.3 µM (inactive)

CC(C)(C)OC(=O)NCCCCC(NC(=O)c1ccccc1)C(N)=O (centres undefined)
GI50 (786-0): > 100 µM (inactive)
GI50 (A498): > 100 µM (inactive)
GI50 (A549): > 100 µM (inactive)
GI50 (ACHN): > 100 µM (inactive)
GI50 (BT-549): > 100 µM (inactive)
GI50 (CAKI-1): > 100 µM (inactive)
GI50 (CCRF-CEM): > 100 µM (inactive)
GI50 (COLO 205): > 100 µM (inactive)
GI50 (DU-145): > 100 µM (inactive)
GI50 (EKVX): > 100 µM (inactive)
GI50 (HCT-116): > 100 µM (inactive)
GI50 (HCT-15): > 100 µM
GI50 (HOP-62): > 100 µM (inactive)
GI50 (HT-29): > 100 µM (inactive)
GI50 (Hs-578T): > 100 µM (inactive)
GI50 (K562): 54.7 µM (inactive)
GI50 (KM12): > 100 µM (inactive)
GI50 (LOX IMVI): > 100 µM (inactive)
GI50 (M14): > 100 µM (inactive)
GI50 (MCF7): > 100 µM (inactive)
GI50 (MDA-MB-231): > 100 µM (inactive)
GI50 (MDA-MB-435): > 100 µM (inactive)
GI50 (MDA-N): > 100 µM (inactive)
GI50 (MOLT-4): 46.6 µM (inactive)
GI50 (Malme-3M): > 100 µM (inactive)
GI50 (NCI-H226): > 10 µM (inactive)
GI50 (NCI-H23): > 100 µM (inactive)
GI50 (NCI-H460): > 100 µM (inactive)
GI50 (NCI-H522): > 100 µM (inactive)
GI50 (NCI/ADR-RES): > 100 µM (inactive)
GI50 (OVCAR-3): > 100 µM (inactive)
GI50 (OVCAR-4): > 100 µM (inactive)
GI50 (OVCAR-5): > 100 µM (inactive)
GI50 (OVCAR-8): > 100 µM (inactive)
GI50 (PC-3): > 100 µM (inactive)
GI50 (RPMI-8226): > 100 µM (inactive)
GI50 (RXF 393): > 100 µM (inactive)
GI50 (SF-268): > 100 µM (inactive)
GI50 (SF-295): > 100 µM (inactive)
GI50 (SF-539): > 100 µM (inactive)
GI50 (SK-MEL-28): > 100 µM (inactive)
GI50 (SK-MEL-2): > 100 µM (inactive)
GI50 (SK-MEL-5): > 100 µM (inactive)
GI50 (SK-OV-3): 99.1 µM (inactive)
GI50 (SN12C): > 100 µM (inactive)
GI50 (SNB-19): > 100 µM (inactive)
GI50 (SNB-75): > 100 µM (inactive)
GI50 (SW-620): > 100 µM (inactive)
GI50 (T47D): > 100 µM (inactive)
GI50 (TK-10): > 100 µM (inactive)
GI50 (U-251): > 100 µM (inactive)
GI50 (UACC-257): > 100 µM (inactive)
GI50 (UACC-62): 71.9 µM (inactive)
GI50 (UO-31): > 100 µM (inactive)

CNc1ccc(N)cc1C(=O)N1CCC[C@H]1CO
GI50 (786-0): > 100 µM (inactive)
GI50 (A498): > 100 µM (inactive)
GI50 (A549): > 100 µM (inactive)
GI50 (ACHN): > 100 µM (inactive)
GI50 (BT-549): > 100 µM (inactive)
GI50 (CAKI-1): > 100 µM (inactive)
GI50 (CCRF-CEM): > 100 µM (inactive)
GI50 (COLO 205): > 100 µM (inactive)
GI50 (DU-145): > 100 µM (inactive)
GI50 (EKVX): > 100 µM (inactive)
GI50 (HCT-116): > 100 µM (inactive)
GI50 (HCT-15): > 100 µM
GI50 (HL-60): > 100 µM (inactive)
GI50 (HOP-62): > 100 µM (inactive)
GI50 (HT-29): > 100 µM (inactive)
GI50 (Hs-578T): > 100 µM (inactive)
GI50 (IGROV-1): > 100 µM (inactive)
GI50 (KM12): > 100 µM (inactive)
GI50 (LOX IMVI): > 100 µM (inactive)
GI50 (M14): > 100 µM (inactive)
GI50 (MCF7): > 100 µM (inactive)
GI50 (MDA-MB-231): > 100 µM (inactive)
GI50 (MDA-MB-435): > 100 µM (inactive)
GI50 (MDA-N): > 100 µM (inactive)
GI50 (MOLT-4): > 100 µM (inactive)
GI50 (Malme-3M): > 100 µM (inactive)
GI50 (NCI-H226): > 100 µM (inactive)
GI50 (NCI-H23): > 100 µM (inactive)
GI50 (NCI-H522): > 100 µM (inactive)
GI50 (NCI/ADR-RES): > 100 µM (inactive)
GI50 (OVCAR-4): > 100 µM (inactive)
GI50 (OVCAR-5): > 100 µM (inactive)
GI50 (OVCAR-8): > 100 µM (inactive)
GI50 (PC-3): > 100 µM (inactive)
GI50 (RXF 393): > 100 µM (inactive)
GI50 (SF-268): > 100 µM (inactive)
GI50 (SF-295): > 100 µM (inactive)
GI50 (SF-539): > 100 µM (inactive)
GI50 (SK-MEL-28): > 100 µM (inactive)
GI50 (SK-MEL-2): > 100 µM (inactive)
GI50 (SK-MEL-5): > 100 µM (inactive)
GI50 (SK-OV-3): > 100 µM (inactive)
GI50 (SN12C): > 100 µM (inactive)
GI50 (SNB-19): > 100 µM (inactive)
GI50 (SNB-75): > 100 µM (inactive)
GI50 (SW-620): > 100 µM (inactive)
GI50 (T47D): > 100 µM (inactive)
GI50 (TK-10): > 100 µM (inactive)
GI50 (U-251): > 100 µM (inactive)
GI50 (UACC-257): > 100 µM (inactive)
GI50 (UACC-62): > 100 µM (inactive)
GI50 (UO-31): > 100 µM (inactive)
